The values that follow come from patent US10196404B2, “MCL-1 inhibitors and methods of use thereof” (AstraZeneca AB, priority 2016, dated 2019).

Assay [1] relates to NCl-H23 (non-small cell lung cancer) cells. The experiment in a line: Caspase Activity Assay (Caspase-Glo 3/7, 6 h treatment), NCI-H23. The assay is classed as cell-based. Conditions: geometric mean of multiple measurements. The protocol:
(§1) This is a cell assay to measure the induction of apoptosis in MOLP-8 (multiple myeloma), KMS-12-BM (multiple myeloma), MV-4-11 (acute myeloid leukemia), and NCl-H23 (non-small cell lung cancer) cells after 6 h treatment. On the first day, 3000 (MOLP-8, KMS-12-BM, MV-4-11) or 1250 (NCl-H23) cells/well were seeded in 50 μL of growth media (IMDM+10% FBS+2 mM L-Glu for MV-4-11 and RPM1-1640+10% FBS+2 mM L-Glu for all other cell lines) in 384-well white microplates, and incubated overnight (37° C., 5% CO2, 80% RH). On the second day, the cells were treated with Mcl-1 inhibitors using an ECHO acoustic liquid handler (10 point half-log serial dilution, 31.5 μM top concentration, 0.3% final DMSO concentration). After 6 h incubation (37° C., 5% CO2, 80% RH), 25 μL of Caspase-Glo 3/7 reagent (Promega) was added into each well, and plates were incubated at room temperature for 30 min protected from light. Luminescence was recorded using an Infinite M200 microplate reader (Tecan) with a 100 ms integration time. EC50 values were calculated using GeneData analysis software.

Assay [2] relates to MV-4-11 (acute myeloid leukemia) cells. In words: Caspase Activity Assay (Caspase-Glo 3/7, 6 h treatment), MV-4-11. It is filed as cell-based, human. The settings on record: MV-4-11 cells, geometric mean of multiple measurements. The protocol: as §1
Assay [3] has as its system MOLP-8 (multiple myeloma) cells. In words: Caspase Activity Assay (Caspase-Glo 3/7, 6 h treatment), MOLP-8. It is filed as cell-based, human. The settings on record: MOLP-8 cells, geometric mean of multiple measurements. The protocol: as §1
Assay [4] concerns KMS-12-BM (multiple myeloma) cells. In words: Caspase Activity Assay (Caspase-Glo 3/7, 6 h treatment), KMS-12-BM. The settings on record: KMS-12-BM cells, geometric mean of multiple measurements. It is filed as cell-based. As to the method:
as §1

In assay [5] the test system is NCl-H929 tumor. The experiment in a line: In vivo combination efficacy in NCI-H929 human multiple myeloma tumor model. Set-up: species or system C.B-17 SCID female mice. The settings on record: NCl-H929 tumor bearing mice; for anti-tumor activity, agent alone: Example 2 30 mg/kg every other week or bortezomib 1 mg/kg weekly. The protocol: (§2) Example 2 was formulated in 30% 2-Hydroxypropyl-beta-cyclodextrin (HPBCD), pH 9 and dosed as intravenously (iv) in a volume of 5 ml/kg. 5×10^6 MOLP-8 tumor cells or 10^7 NCl-H929 tumor cells were injected subcutaneously in the right flank of C.B-17 SCID female mice in a volume of 0.1 mL. Tumor volumes (measured by caliper) were calculated using the formula: length (mm)×width (mm)^2[…]. For efficacy studies, mice were randomized based on tumor volumes and growth inhibition was assessed by comparison of the differences in tumor volume between control and treated groups. Dosing began when mean tumor size reached approximately 160 mm^3 for MOLP-8 and approximately 230 mm^3 for NCl-H929.

The test system of assay [6] is MV-4-11 tumor. In words: In vivo efficacy in MV-4-11 human acute myeloid leukemia tumor model. The settings on record: for mice remaining tumor free / tumor regression: MV-4-11 tumors. Set-up: species or system C.B-17 SCID female mice. The protocol:
as §2, with “a single intravenous” for “intravenously”, “(iv) administration” for “(iv)”, “10^6 MV-4-11” for “5×10^6 MOLP-8 tumor cells or 10^7 NCl-H929”, “mL. Tumor volumes (measured by caliper), animal body weight, and tumor conditions were recorded twice weekly for the duration of the study.” for “mL.”, “approximately” for “approximately 160 mm^3 for MOLP-8 and approximately”, “mm^3.” for “mm^3 for NCl-H929.”

Assay [7] relates to MOLP-8 tumor. The experiment in a line: In vivo efficacy in MOLP-8 human multiple myeloma tumor model. Set-up: species or system C.B-17 SCID female mice. The settings on record: MOLP-8 tumor bearing mice. As to the method:
as §2

With `Cc1c2c(nn1C)CSCc1cc(n(C)n1)CSc1cc(c3ccccc3c1)OCCCc1c(C(=O)O)n(C)c3c-2c(Cl)ccc13` [Example 1, 17-chloro-5,13,14,22-tetramethyl-28-oxa-2,9-dithia-5,6,12,13,22-pentaazaheptacyclo[27.7.1.1^4,7.0^11,15.0^16,21.0^20,24.0^30,35]octatriaconta-1(37),4(38),6,11,14,16,18,20,23,29,31,33,35-tridecaene-23-carboxylic Acid], the EC50 came to 531 nM in assay [1]; 24 nM in assay [2] (Homo sapiens, MV4-11, 6 h); 44 nM in assay [3] (Homo sapiens, MOLP-8, 6 h); 48 nM in assay [4] (Homo sapiens, KMS-12-BM, 6 h).
Take `Cc1c2c(nn1C)CSCc1cc(n(C)n1)CSc1cc(c3ccccc3c1)OCCCc1c(C(=O)O)n(C)c3c-2c(Cl)ccc13` (atropisomer, axis not shown; (Ra)) [Example 2, (Ra)-(+)-17-chloro-5,13,14,22-tetramethyl-28-oxa-2,9-dithia-5,6,12,13,22-pentaazaheptacyclo[27.7.1.1^4,7.0^11,15.0^16,21.0^20,24.0^30,35]octatriaconta-1(37),4(38),6,11,14,16,18,20,23,29,31,33,35-tridecaene-23-carboxylic Acid]: the EC50 stood at 20 nM in assay [2], 30 nM in assay [3] and 43 nM in assay [4]. Also, the “anti-tumor activity, agent alone” value in assay [5] is listed as “no significant anti-tumor activity”. For the same compound, the “anti-tumor effect of combination” value in assay [5] (Example 2 every other week at 30 mg/kg in combination with weekly bortezomib at 1 mg/kg) is reported as “tumor regression”. Moreover, the “mice remaining tumor free” value in assay [6] (once weekly iv 30 mg/kg, 16 days after initiation of therapy) is recorded as 1 of 6; in assay [6] (single iv dose of 100 mg/kg, 16 days after therapy), 4 of the 6. For the same compound, the tumor regression in assay [6] (once weekly iv 30 mg/kg, at Day 6) is reported as roughly 73%; in assay [6] (single iv dose of 100 mg/kg), 100%. Further, the “anti-tumor activity (qualitative)” value in assay [6] (mice bearing subcutaneous MV-4-11 tumors, iv) is reported as “significant anti-tumor activity”; in assay [7] (iv), “dose dependent anti-tumor activity”. In addition, the “tumor growth inhibition (TGI)” value in assay [7] (single iv administration at 10 mg/kg) is 52%; in assay [7] (single iv administration at 30 mg/kg), 92%. Besides, in assay [7] (single iv administration at 60 or 100 mg/kg, measured 10 days after dosing), the “mice with complete tumor regression” value is 13 out of 14.
With `Cc1c2c(nn1C)CSCc1cc(n(C)n1)CSc1cc(c3ccccc3c1)OCCCc1c(C(=O)O)n(C)c3c-2c(Cl)ccc13` (single isomer, unassigned) [Example 3, (Sa)-(−)-17-chloro-5,13,14,22-tetramethyl-28-oxa-2,9-dithia-5,6,12,13,22-pentaazaheptacyclo[27.7.1.1^4,7.0^11,15.0^16,21.0^20,24.0^30,35]octatriaconta-1(37),4(38),6,11,14,16,18,20,23,29,31,33,35-tridecaene-23-carboxylic Acid], the EC50 is greater than 10000 nM in assay [1] (Homo sapiens, NCI-H23, 6 h); greater than 1580 nM in assay [2] (Homo sapiens, MV4-11, 6 h); greater than 2300 nM in assay [3] (Homo sapiens, MOLP-8, 6 h); greater than 1030 nM in assay [4] (Homo sapiens, KMS-12-BM, 6 h).
As for `CC(C)C[C@H](NC(=O)[C@H](Cc1ccccc1)NC(=O)c1cnccn1)B(O)O` [bortezomib, reference compound], the “anti-tumor activity, agent alone” value in assay [5] was “no significant anti-tumor activity”.

A word on the EC50: it is the concentration needed to bring the measured effect to its halfway point. A high value points to a less potent agent.
